Experimental data taken from patent US20260130933A1, “PHARMACEUTICAL COMPOSITION FOR PREVENTION OR TREATMENT OF NEPHROPATHY AND/OR DIABETES MELLITUS, COMPRISING ENAVOGLIFLOZIN” (DAEWOONG PHARMACEUTICAL CO., LTD., priority 2022, published 2026).

Test: Example 3: phase 3 trial, enavogliflozin 0.3 mg vs dapagliflozin 10 mg once a day for 24 weeks added to metformin and gemigliptin in patients with type 2 diabetes (same endpoints, rescue drug)
Assay type: in vivo, human
Description: 1) when Metformin (≥1,000 mg/Day) was Administered at a Constant Dose for at Least 8 Weeks Prior to Pre-Visit (Pre-Screening) • Metformin (≥1,000 mg/day) and gemigliptin (50 mg/day) were co-administered during the 8-week stabilization period. […] 4) when Metformin (≥1,000 mg/Day) and Gemigliptin (50 mg/Day) were Co-Administered at Constant Doses for at Least 8 Weeks Prior to Pre-Visit (Prescreening) • Without a separate stabilization period, Pre-visit (pre-screening) was Visit 1 (screening).
Subjects who met the inclusion/exclusion criteria continued to receive metformin and gemigliptin while receiving a placebo of the clinical trial drug in a single-blind (subject-blinded) state for a 2-week run-in period.
Here, the randomized subjects were stratified according to the administration therapy (co-administration with two or less agents (one or two agents) or three or more agents) of a conventional hypoglycemic agent (before washout of another hypoglycemic agent) within 24 weeks prior to obtaining written informed consent and by an HbA1c value (<8% or ≥8%) at Visit 1 (screening) measured in the central laboratory.
The randomized subjects were administered two tablets of the clinical trial drug corresponding to each administration group once a day, and then visited the institution at weeks 6, 12, 18, and 24 during the 24-week administration period to conduct efficacy and safety assessments. In addition, during the clinical trial period, they were instructed to exercise regularly and control their diet without changing their daily life patterns.
• 1) Change in HbA1c at week 24 after administration of clinical trial drug compared to Visit 2 (randomization)
• 1) Change in HbA1c at each time point of weeks 6, 12, and 18 after administration of clinical trial drug compared to Visit 2 (randomization) • 2) Change in FPG at each time point of weeks 6, 12, 18, and 24 after administration of clinical trial drug compared to Visit 2 (randomization) • 3) Proportion of subjects achieving HbA1c<7% at each time point of weeks 6, 12, 18, and 24 after administration of clinical trial drug • 4) Proportion of subjects achieving HbA1c<6.5% at each time point of weeks 6, 12, 18, and 24 after administration of clinical trial drug • 5) Proportion of subjects achieving therapeutic response (HbA1c change (HbA1c at Visit 2—HbA1c at each evaluation time point)>0.5% or HbA1c<7% at each evaluation time point compared to Visit 2 (randomization)) at each time point of weeks 6, 12, 18, and 24 after administration of clinical trial drug • 6) Proportion of subjects achieving therapeutic response (HbA1c change (HbA1c at Visit 2—HbA1c at each evaluation time point)>0.7% or HbA1c<7% at each evaluation time point compared to Visit 2 (randomization)) at each time point of weeks 6, 12, 18, and 24 after administration of clinical trial drug • 7) Proportion of subjects achieving therapeutic response (HbA1c change (HbA1c at Visit 2—HbA1c at each evaluation time point)>1% or HbA1c<7% at each evaluation time point compared to Visit 2 (randomization)) at each time point of weeks 6, 12, 18, and 24 after administration of clinical trial drug

[1] = week 6, modified per-protocol set 1, enavogliflozin 0.3 mg, dapagliflozin 10 mg
[2] = week 6, modified per-protocol set 2
[3] = week 6, modified per-protocol set 2, enavogliflozin 0.3 mg, dapagliflozin 10 mg
[4] = week 6, per-protocol set, enavogliflozin 0.3 mg, dapagliflozin 10 mg

CCOc1ccc(Cc2cc([C@@H]3O[C@H](CO)[C@@H](O)[C@H](O)[C@H]3O)ccc2Cl)cc1 [Dapagliflozin, reference compound]
HbA1c, Mean (SD) (Baseline, PPS): 7.83%
HbA1c, Median (Baseline, PPS): 7.64%
HbA1c change from baseline, ANCOVA LS mean (SE) (Week 24, PPS): −0.86 % p
HbA1c change from baseline, Mean (SD) (Week 24, PPS): −0.89 % p
HbA1c change from baseline, Median (Week 24, PPS): −0.86 % p
HbA1c, Mean (SD) (Week 24, PPS): 6.94%
HbA1c, Median (Week 24, PPS): 6.81%
FPG change from baseline, LS mean (SE) (week 6): −22.71(1.39) mg/dL
HDL-C change from baseline, LS mean (SE) (week 6): 1.13(0.56) mg/dL
HOMA-IR change from baseline, LS mean (SE) (week 6): −0.99(0.14)
HOMA-β change from baseline, LS mean (SE) (week 6): 3.20(3.04)
HbA1c change from baseline, LS mean (SE) (week 6): −0.70(0.03) % p
LDL-C change from baseline, LS mean (SE) (week 6): 1.91(1.78) mg/dL
UACR change from baseline, LS mean (SE) (week 6): −14.85(3.36) g/kg
UGCR change from baseline, LS mean (SE) (week 6): 45.75(2.14) mg/mg
adiponectin change from baseline, LS mean (SE) (week 6): 0.37(0.33) μg/mL
body weight change from baseline, LS mean (SE) (week 6): −1.80(0.16) kg
diastolic blood pressure change from baseline, LS mean (SE) (week 6): −1.88(0.67) mmHg
fasting C-peptide change from baseline, LS mean (SE) (week 6): −0.04(0.02) ng/mL
leptin change from baseline, LS mean (SE) (week 6): −2.03(0.45) ng/mL
systolic blood pressure change from baseline, LS mean (SE) (week 6): −3.49(0.87) mmHg
total cholesterol change from baseline, LS mean (SE) (week 6): 2.63(1.93) mg/dL
triglyceride change from baseline, LS mean (SE) (week 6): −5.39(4.38) mg/dL
Change from baseline in HDL-C, ANCOVA LS mean [1]: 1.13 mg/dL
Change from baseline in HDL-C, Mean [1]: 0.94 mg/dL
Change from baseline in HDL-C, Median [1]: 1.00 mg/dL
Change from baseline in LDL-C, ANCOVA LS mean [1]: 1.91 mg/dL
Change from baseline in LDL-C, Mean [1]: 1.40 mg/dL
Change from baseline in LDL-C, Median [1]: 1.00 mg/dL
Change from baseline in total cholesterol, ANCOVA LS mean [1]: 2.63 mg/dL
Change from baseline in total cholesterol, Mean [1]: 1.55 mg/dL
Change from baseline in total cholesterol, Median [1]: 2.00 mg/dL
Change from baseline in triglycerides, ANCOVA LS mean [1]: -5.39 mg/dL
Change from baseline in triglycerides, Mean [1]: -10.00 mg/dL
Change from baseline in triglycerides, Median [1]: 1.00 mg/dL
Fasting HDL-C, Mean [1]: 48.39 mg/dL
Fasting HDL-C, Median [1]: 48.00 mg/dL
Fasting LDL-C, Mean [1]: 78.50 mg/dL
Fasting LDL-C, Median [1]: 70.00 mg/dL
Fasting total cholesterol, Mean [1]: 145.04 mg/dL
Fasting triglycerides, Mean [1]: 121.81 mg/dL
Fasting triglycerides, Median [1]: 98.00 mg/dL
fasting Total cholesterol, Median [1]: 136.00 mg/dL
Change from baseline in diastolic blood pressure, ANCOVA LS mean [2]: −1.88 mmHg
Change from baseline in diastolic blood pressure, Mean [2]: −1.57 mmHg
Change from baseline in diastolic blood pressure, Median [2]: −2.00 mmHg
Diastolic blood pressure, Mean [2]: 72.20 mmHg
Diastolic blood pressure, Median [2]: 72.00 mmHg
Change from baseline in systolic blood pressure, ANCOVA LS mean [3]: −3.49 mmHg
Change from baseline in systolic blood pressure, Mean [3]: −3.23 mmHg
Change from baseline in systolic blood pressure, Median [3]: −3.50 mmHg
Systolic blood pressure, Mean [3]: 120.64 mmHg
Systolic blood pressure, Median [3]: 119.00 mmHg
Adiponectin, Mean (week 6, per-protocol set): 6.69 µg/mL
Adiponectin, Median (week 6, per-protocol set): 5.80 µg/mL
Change from baseline in HOMA-IR, ANCOVA LS mean (week 6, per-protocol set): −0.99
Change from baseline in HOMA-IR, Mean (week 6, per-protocol set): −0.92
Change from baseline in HOMA-IR, Median (week 6, per-protocol set): −0.72
Change from baseline in HOMA-β, ANCOVA LS mean (week 6, per-protocol set): 3.20
Change from baseline in HOMA-β, Mean (week 6, per-protocol set): 4.48
Change from baseline in HOMA-β, Median (week 6, per-protocol set): 5.30
Change from baseline in UACR, ANCOVA LS mean (week 6, per-protocol set): -14.85 g/kg
Change from baseline in UACR, Mean (week 6, per-protocol set): -7.25 g/kg
Change from baseline in UACR, Median (week 6, per-protocol set): -0.40 g/kg
Change from baseline in UGCR, ANCOVA LS mean (week 6, per-protocol set): 45.75 mg/mg
Change from baseline in UGCR, Mean (week 6, per-protocol set): 43.58 mg/mg
Change from baseline in UGCR, Median (week 6, per-protocol set): 42.62 mg/mg
Change from baseline in adiponectin, ANCOVA LS mean (week 6, per-protocol set): 0.37 µg/mL
Change from baseline in adiponectin, Mean (week 6, per-protocol set): 0.31 µg/mL
Change from baseline in adiponectin, Median (week 6, per-protocol set): 0.34 µg/mL
Change from baseline in leptin, ANCOVA LS mean (week 6, per-protocol set): -2.03 ng/mL
Change from baseline in leptin, Mean (week 6, per-protocol set): -2.04 ng/mL
Change from baseline in leptin, Median (week 6, per-protocol set): -1.26 ng/mL
HOMA-IR (insulin resistance), Mean (week 6, per-protocol set): 1.90
HOMA-IR (insulin resistance), Median (week 6, per-protocol set): 1.66
HOMA-β (beta-cell function), Mean (week 6, per-protocol set): 44.56
HOMA-β (beta-cell function), Median (week 6, per-protocol set): 36.75
Leptin, Mean (week 6, per-protocol set): 8.78 ng/mL
Leptin, Median (week 6, per-protocol set): 7.03 ng/mL
UACR, Mean (week 6, per-protocol set): 23.20 g/kg
UACR, Median (week 6, per-protocol set): 11.20 g/kg
UGCR, Mean (week 6, per-protocol set): 45.12 mg/mg
UGCR, Median (week 6, per-protocol set): 43.37 mg/mg
Body weight, Mean [4]: 65.20 kg
Change from baseline in FPG, ANCOVA LS mean [4]: -22.71 mg/dL
Change from baseline in FPG, Mean [4]: -22.87 mg/dL
Change from baseline in FPG, Median [4]: -18.50 mg/dL
Change from baseline in HbA1c, ANCOVA LS mean [4]: −0.70 % p
Change from baseline in HbA1c, Mean [4]: −0.72 % p
Change from baseline in HbA1c, Median [4]: −0.65 % p
Change from baseline in body weight, ANCOVA LS mean [4]: -1.80 kg
Change from baseline in body weight, Mean [4]: -1.68 kg
Change from baseline in body weight, Median [4]: -1.55 kg
Change from baseline in fasting C-peptide, ANCOVA LS mean [4]: -0.04 ng/mL
Change from baseline in fasting C-peptide, Mean [4]: -0.04 ng/mL
Change from baseline in fasting C-peptide, Median [4]: -0.03 ng/mL
FPG, Mean [4]: 117.64 mg/dL
FPG, Median [4]: 116.50 mg/dL
Fasting C-peptide, Mean [4]: 0.65 ng/mL
Fasting C-peptide, Median [4]: 0.63 ng/mL
HbA1c, Mean [4]: 7.10%
